Activity calls are given as the source filed them. The calls are words filed in the database; no cut-off is given here.
Assays:
[1] = test system: MCF7; assay: Inhibition of 17beta-estradiol-induced in ERalpha positive human MCF7 cells proliferation assessed as [3H]-thymidine incorporation after 72 hrs by liquid scintillation counting; type: functional, cell-based
[2] = test system: MDA-MB-231; assay: Inhibition of 17beta-estradiol-induced in ERalpha negative human MDA-MB-231 cells proliferation assessed as [3H]-thymidine incorporation after 72 hrs by liquid scintillation counting; type: functional, cell-based
[3] = test system: MCF7; assay: Inhibition of 17beta-estradiol-induced in ERalpha positive human MCF7 cells proliferation assessed as [3H]-thymidine incorporation at 100 nM after 72 hrs by liquid scintillation counting; type: functional, cell-based
[4] = test system: MCF7; assay: Cytotoxicity against ERalpha positive human MCF7 cells at 10 nM and 1 uM; type: cell-based; details: mcf7, 0.01 µM
[5] = test system: MDA-MB-231; assay: Cytotoxicity against ERalpha negative human MDA-MB-231 cells at 10 nM and 1 uM; type: cell-based; details: mda-mb-231, 0.01 µM
[6] = test system: MCF7; assay: Inhibition of 17beta-estradiol-induced in ERalpha positive human MCF7 cells proliferation assessed as [3H]-thymidine incorporation at 1 uM after 72 hrs by liquid scintillation counting; type: functional, cell-based
[7] = test system: MCF7; assay: Inhibition of 17beta-estradiol-induced in ERalpha positive human MCF7 cells proliferation assessed as [3H]-thymidine incorporation at 10 nM after 72 hrs by liquid scintillation counting; type: functional, cell-based

Question: For CC(=O)c1ccc2c(c1)CC[C@H]1[C@H]2C[C@@H]2O[C@@]23C[C@@H](O)CC[C@]13C, which inhibition [1] is on record?
Answer: inactive

Question: What does the source list for CC(=O)c1ccc2c(c1)CC[C@H]1[C@H]2CC[C@H]2CC=CC(=O)[C@@]21C?
Answer: IC50 [1]: 50 nM; inhibition [2]: inactive; inhibition [3]: Active

Question: How did the IC50 [1] turn out when C[C@@H](c1cc(O)c2c(c1)CC[C@H]1[C@H]2C[C@@H]2O[C@@]23CC=CC(=O)[C@]13C)[C@@H]1C[C@@H]2O[C@@H]2[C@H](O)O1 [SALPICHROLIDE G] was run?
Answer: 140 nM

Question: And the Activity [4]?
Answer: Toxic

Question: What about the Activity [5] of the same compound?
Answer: Toxic

Question: With CC(=O)c1ccc2c(c1)CC[C@H]1[C@H]2CC[C@H]2C[C@@H](O)CC[C@@]21C as the compound, how does the IC50 [1] read?
Answer: 330 nM

Question: And the inhibition [2]?
Answer: inactive

Question: And the inhibition [3]?
Answer: Active

Question: How did the IC50 [1] turn out when C[C@@H](c1ccc2c(c1)CC[C@H]1[C@H]2C[C@@H]2O[C@@]23CC=C[C@H](O)[C@]13C)[C@H]1C[C@]2(C)O[C@]2(C)[C@H](O)O1 was run?
Answer: 18 nM

Question: For CC(=O)c1ccc2c(c1)CC[C@H]1[C@H]2CC[C@H]2CC=C[C@H](O)[C@@]21C, which inhibition [6] is on record?
Answer: inactive

Question: CC(=O)c1ccc2c(c1)CC[C@H]1[C@H]2C[C@H]2O[C@]23C[C@@H](O)CC[C@]13C was tested. Which inhibition [6] did it give?
Answer: inactive

Question: C[C@]12CC[C@@H]3c4ccc(O)cc4C[C@@H](CCCCCCCCC[S+]([O-])CCCC(F)(F)C(F)(F)F)[C@H]3[C@@H]1CC[C@@H]2O (stereo not given in full) [FULVESTRANT] was tested. Which inhibition [7] did it give?
Answer: Active

Question: What about the IC50 [1] of the same compound?
Answer: 1.9 nM
